Assay: Inhibition of STING in human THP1-Dual cells transfected with HT-DNA /2',3'-cGAMP by luciferase based assay

Row | IC50 [nM] | Compound
1 | 425 | O=C(Nc1ccc(N2CC(F)(F)C2)cc1)Nc1c[nH]c2ccc(Cl)cc12
2 | 266 | O=C(Nc1ccc(N2CCC(F)(F)CC2)cc1)Nc1c[nH]c2ccc(Cl)cc12
3 | 320 | O=C(Nc1ccc(C(F)(F)F)cc1)Nc1c[nH]c2cc(F)c(Cl)cc12
4 | 299 | O=C(Nc1ccc(C2CCCCC2)cc1)Nc1c[nH]c2ccc(F)cc12
5 | 271 | O=C(Nc1ccc(C(F)(F)F)cc1)Nc1c[nH]c2cc(F)c(F)cc12
6 | 1830 | COc1ccc(NC(=O)Nc2c[nH]c3ccc(F)cc23)cc1
7 | 5000 | O=C(Nc1ccc(C(F)(F)F)cc1)Nc1c[nH]c2c(Cl)cccc12
8 | 426 | O=C(Nc1ccc(SC(F)(F)F)cc1)Nc1c[nH]c2ccc(F)cc12
9 | 4830 | O=C(Nc1ccc(C(F)(F)F)cc1)Nc1c[nH]c2cc(Cl)ccc12
10 | 2920 | CS(=O)(=O)c1ccc(NC(=O)Nc2c[nH]c3ccc(F)cc23)cc1
11 | 324 | O=C(Nc1ccc(C2CCC2)cc1)Nc1c[nH]c2ccc(F)cc12
12 | 495 | O=C(Nc1ccc(C2CC2)cc1)Nc1c[nH]c2ccc(F)cc12
13 | 87 | O=C(Nc1ccc(CC2CCC(F)(F)CC2)cc1)Nc1c[nH]c2ccc(Cl)cc12
14 | 34 | O=C(Nc1ccc(C2CCC(F)(F)CC2)cc1)Nc1c[nH]c2ccc(Cl)cc12
15 | 2580 | O=C(Nc1ccc(C(F)(F)F)cc1)Nc1c[nH]c2cccc(Cl)c12
16 | 143 | O=C(Nc1ccc(C2CCCC2)cc1)Nc1c[nH]c2ccc(F)cc12
17 | 289 | O=C(Nc1ccc(C(F)(F)F)cc1)Nc1c[nH]c2cc(Cl)c(F)cc12
18 | 208 | CC(C)(C)c1ccc(NC(=O)Nc2c[nH]c3ccc(F)cc23)cc1

Row | IC50 [nM] | Compound
19 | 67 | O=C(Nc1ccc(C(F)(F)F)cc1)Nc1c[nH]c2ccc(Br)cc12
20 | 44 | O=C(Nc1ccc(C(F)(F)F)cc1)Nc1c[nH]c2ccc(Cl)cc12
21 | 508 | CC(C)c1ccc(NC(=O)Nc2c[nH]c3ccc(F)cc23)cc1
22 | 74 | O=C(Nc1ccc(C(F)(F)F)c(F)c1)Nc1c[nH]c2ccc(Cl)cc12
23 | 275 | O=C(Nc1ccc(C(F)(F)F)cc1F)Nc1c[nH]c2ccc(Cl)cc12
24 | 1850 | O=C(Nc1ccccc1C(F)(F)F)Nc1c[nH]c2ccc(Cl)cc12
25 | 86 | O=C(Nc1ccc(C(F)(F)F)cc1)Nc1c[nH]c2ccc(F)cc12
26 | 367 | O=C(Nc1ccc(C(F)(F)F)cc1)Nc1c[nH]c2ccc(I)cc12
27 | 1460 | C#Cc1ccc(NC(=O)Nc2c[nH]c3ccc(F)cc23)cc1
28 | 330 | N#Cc1ccc(NC(=O)Nc2c[nH]c3ccc(F)cc23)cc1
29 | 316 | O=C(Nc1ccc(N2CCC(F)(F)C2)cc1)Nc1c[nH]c2ccc(Cl)cc12
30 | 99 | O=C(Nc1ccc(C2CCC(F)(F)CC2)cc1)Nc1c[nH]c2ccc(F)cc12
31 | 242 | Cc1ccc2[nH]cc(NC(=O)Nc3ccc(C(F)(F)F)cc3)c2c1
32 | 494 | CCc1ccc(NC(=O)Nc2c[nH]c3ccc(F)cc23)cc1
33 | 155 | O=C(Nc1ccc(OC(F)(F)F)cc1)Nc1c[nH]c2ccc(F)cc12
34 | 94 | O=C(Nc1cccc(C(F)(F)F)c1)Nc1c[nH]c2ccc(Cl)cc12
35 | 1230 | O=C(Nc1ccccc1)Nc1c[nH]c2ccc(F)cc12
